In patent US20100048727A1, “PERFLUOROKETONE COMPOUNDS AND USES THEREOF” (priority 2007, published 2010):

Tests used:
[1] = system: inflammatory cytokines and chemokines in spinal cord; assay: Mouse Inflammation antibody array on spinal cords of EAE mice; type: in vivo; conditions: peak stage (day 18)
Description: Mouse Inflammation antibody array. Spinal cords were removed from vehicle- and FKGK11-treated animals at the peak stage of disease, and were then homogenized and centrifuged at 1000×g. The proteins were extracted and analyzed using the RayBio® Mouse Inflammation Antibody Array 1.1 (Cat. #0106008/AAM-INF-1; RayBiotech Inc.; Norcross, Ga.), which simultaneously detects 40 cytokines and other related proteins. Densitometry analysis was performed to detect differences between the various inflammatory mediators.
To further examine the effects of iPLA2 inhibitor treatment, the expression of 40 inflammatory cytokines and chemokines was assessed using the RayBio® Mouse Inflammation Antibody Array 1.1 (RayBiotech Inc., Norcross, Ga, Cat. #0106008/AAM-INF-1). The analysis was carried out on spinal cords taken from the peak stage of clinical disability (day 18), from mice treated with either a vehicle control, or the iPLA2-specific inhibitor FKGK11.

[2] = molecular target: T1, GVIA iPLA2 (Homo sapiens, UniProt O60733); assay: standard GVIA iPLA2 activity assay (DPPC/Triton X-100 mixed micelles); type: biochemical; conditions: 0.091 mole fraction; mean and standard error, n = 3
T1 sequence (O60733 1-806): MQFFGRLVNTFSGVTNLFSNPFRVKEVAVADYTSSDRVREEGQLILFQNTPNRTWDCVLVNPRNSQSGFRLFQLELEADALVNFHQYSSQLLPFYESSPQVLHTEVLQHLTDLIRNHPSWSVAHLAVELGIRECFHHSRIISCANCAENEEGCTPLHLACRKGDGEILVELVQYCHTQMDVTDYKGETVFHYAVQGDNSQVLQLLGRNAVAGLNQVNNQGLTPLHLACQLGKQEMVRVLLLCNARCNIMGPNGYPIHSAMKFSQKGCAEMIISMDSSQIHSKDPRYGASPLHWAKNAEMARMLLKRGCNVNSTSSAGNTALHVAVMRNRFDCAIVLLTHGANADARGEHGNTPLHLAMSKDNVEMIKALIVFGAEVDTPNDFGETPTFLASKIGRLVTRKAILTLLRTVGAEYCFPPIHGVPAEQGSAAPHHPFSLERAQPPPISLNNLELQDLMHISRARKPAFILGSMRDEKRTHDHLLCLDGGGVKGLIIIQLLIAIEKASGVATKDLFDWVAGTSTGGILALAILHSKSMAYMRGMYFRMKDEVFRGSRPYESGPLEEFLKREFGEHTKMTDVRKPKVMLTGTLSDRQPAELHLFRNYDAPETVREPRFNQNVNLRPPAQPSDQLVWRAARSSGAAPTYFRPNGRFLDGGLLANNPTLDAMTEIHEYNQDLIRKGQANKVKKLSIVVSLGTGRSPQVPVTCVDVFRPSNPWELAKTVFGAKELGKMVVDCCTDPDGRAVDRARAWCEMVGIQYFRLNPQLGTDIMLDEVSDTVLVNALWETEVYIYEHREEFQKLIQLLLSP
Description: Inhibition of phospholipase A2 by perfluoroketone compounds. […] (2002) J. Med. Chem. 45: 2891-2893; Kokotos, G. et al. (2004). J. Med. Chem. 47: 3615-3628). The standard GVIA iPLA2 activity assay utilizes DPPC/Triton™ X-100 mixed micelles at a ratio of 1:4 as previously described (Stephens D. et al. (2006). J. Med. Chem., 49: 2821-2828). GV sPLA2 activity was measured in an assay similar to the assays for GIVA cPLA2 and GVIA iPLA2.

## O=C(CCCCc1ccccc1)C(F)(F)C(F)(F)F [FKGK11, 1,1,1,2,2-Pentafluoro-7-phenyl-3-heptanone]
[1]
  IL-10 expression: increase
[1]; of 15 chemokines increased in vehicle-treated control
  number of chemokine proteins with marked reduction: 11
[1]; of 17 cytokines increased in vehicle-treated control
  number of pro-inflammatory cytokines with reduced expression: 13
[2]
  Average percent inhibition GVIA iPLA2: 98 ± 16%
